Test results reported in US20260193293A1, “PEPTIDES CAPABLE OF INHIBITING PROTEIN-PROTEIN INTERACTIONS AT GABAB1A SUBUNIT AND USES THEREOF” (UNIVERSITY OF COPENHAGEN, priority 2022, published 2026).
Where two headings read alike, the source gives them in different places. Non-standard residues stand in square brackets, D forms with d. Residues, ends and D or L forms follow the SMILES beside them. NMeT = CN[C@H](C(=O)O)[C@@H](C)O; NMeD = CN[C@@H](CC(=O)O)C(=O)O; Sar = CNCC(=O)O

Molecular target: Sushi domains (SD1/2) protein
Assay: Fluorescence polarization (FP) competition assay with AJAP-1probe, calculated Ki
Type: binding
Method: Fluorescence polarization (FP). FP assay was employed to determine the binding affinity of peptides in flat bottom black 384-well plates (Corning Life Science) using a Safire2 plate reader (Tecan). All experiments were conducted in 1×PBS (pH 7.4) containing 1% bovine serum albumin (BSA) at rt. The fluorescence polarization values were measured using excitation/emission wavelengths of 530/580 nm. The instrumental Z-factor was adjusted to obtain the maximum fluorescence intensity and the G-factor was calibrated to give an initial millipolarization value of 20 mP. All FP assays including saturation or competition experiments were performed using 25 nM of TAMRA labeled peptides as probes. For saturation assay, the millipolarization values were measured after mixing of probes with 12 serial 1 to 1 diluted concentrations of Sushi domains (SD1/2) protein. All experiments were performed in triplicate and the data were plotted to the one-site binding model using GraphPad Prism 9 to calculate the Kd of probes. […] The experiments were performed at least in triplicate and the data were fitted to the sigmoidal dose response curve using GraphPad Prism 9 to obtain the IC50 of peptides. The Ki values were calculated according to Nikolovska-Coleska et al^310.

[1] = Table 4, truncation and elongation scans of APP epitope, read-out: Ki (nM) mean ± SEM
[2] = Table 12, deep mutational scanning validation variants of PIANPWT, read-out: Ki (nM) mean ± SEM
[3] = Table 13, peptides for affinity maturation, read-out: Ki (nM) mean ± SEM
[4] = Table 10, deep mutational scanning validation variants of APPWT, read-out: Ki (nM) mean ± SEM

## CC[C@H](C)[C@H](NC(=O)[C@H](Cc1ccccc1)NC(=O)[C@H](CCC(=O)O)NC(=O)[C@@H](NC(=O)[C@H](CCC(=O)O)NC(C)=O)[C@@H](C)O)C(=O)N[C@@H](C)C(=O)N[C@@H](Cc1c[nH]c2ccccc12)C(=O)NCC(=O)N1CCC[C@H]1C(=O)N(C)[C@H](C(=O)NCC(=O)N[C@@H](CC(=O)O)C(=O)N[C@@H](CCC(=O)O)C(=O)N[C@@H](CC(=O)O)C(N)=O)[C@@H](C)O (Ac-ETEFIAWGP[NMeT]GDED-NH2)
Table 8, Ala-, D-amino acids and N-methylation scans of AJAP-1WT, read-out: Ki (nM) mean ± SEM
  Ki: 77 ± 3 nM

## CC(=O)N[C@@H](CCC(=O)O)C(=O)N[C@H](C(=O)N[C@@H](CCC(=O)O)C(=O)N[C@@H](Cc1ccccc1)C(=O)N[C@@H](C)C(=O)N[C@@H](C)C(=O)N[C@@H](Cc1c[nH]c2ccccc12)C(=O)NCC(=O)N1CCC[C@H]1C(=O)N[C@H](C(=O)NCC(=O)N[C@@H](CC(=O)O)C(=O)N[C@@H](CCC(=O)O)C(=O)N[C@@H](CC(=O)O)C(N)=O)[C@@H](C)O)[C@@H](C)O [ETEFAAWGPTGDED] (Ac-ETEFAAWGPTGDED-NH2)
Table 8, in μM, read-out: Ki (nM) mean ± SEM
  Ki: > 6250 nM

## CC(=O)N[C@@H](CCC(=O)O)C(=O)N[C@@H](CCC(=O)O)C(=O)N[C@@H](CC(=O)O)C(=O)N[C@@H](CC(=O)O)C(=O)N[C@@H](CO)C(=O)N[C@@H](CC(=O)O)C(=O)N[C@H](C(=O)N[C@@H](Cc1c[nH]c2ccccc12)C(=O)N[C@@H](Cc1c[nH]c2ccccc12)C(N)=O)C(C)C (Ac-EEDDSDVWW-NH2)
[1]
  Ki: 1786 ± 16 nM

## CC[C@H](C)[C@H](NC(=O)[C@H](Cc1ccc(O)cc1)NC(=O)[C@H](Cc1c[nH]c2ccccc12)NC(=O)[C@@H]1CCCN1C(C)=O)C(=O)N[C@H](C(=O)N[C@@H](Cc1c[nH]c2ccccc12)C(=O)NCC(=O)N1CCC[C@H]1C(=O)N[C@H](C(=O)N[C@H](C(=O)N[C@@H](CO)C(=O)N[C@@H](CCCNC(=N)N)C(=O)N[C@@H](CCC(=O)O)C(=O)N[C@@H](CC(=O)O)C(N)=O)C(C)C)[C@@H](C)O)C(C)C [PWYIVWGPTVSRED] (Ac-PWYIVWGPTVSRED-NH2)
[2]
  Ki: 336 ± 2 nM

## CC[C@H](C)[C@H](NC(=O)[C@H](C)NC(=O)[C@H](Cc1c[nH]c2ccccc12)NC(=O)[C@@H]1CCCN1C(C)=O)C(=O)N[C@H](C(=O)N[C@@H](Cc1c[nH]c2ccccc12)C(=O)NCC(=O)N1CCC[C@H]1C(=O)N[C@H](C(=O)N[C@@H](C)C(=O)N[C@@H](CO)C(=O)N[C@@H](CCCNC(=N)N)C(=O)N[C@@H](CCC(=O)O)C(=O)N[C@@H](CC(=O)O)C(N)=O)[C@@H](C)O)C(C)C [PWAIVWGPTASRED] (Ac-PWAIVWGPTASRED-NH2)
Table 9, Ala-, D-amino acids and N-methylation scans of PIANPWT, read-out: Ki (nM) mean ± SEM
  Ki: 318 ± 3 nM

## CC(=O)N[C@@H](CCC(=O)O)C(=O)N[C@@H](CC(=O)O)C(=O)N[C@@H](CC(=O)O)C(=O)N[C@@H](CO)C(=O)N[C@@H](CC(=O)O)C(=O)N[C@H](C(=O)N[C@@H](Cc1c[nH]c2ccccc12)C(=O)N[C@@H](Cc1c[nH]c2ccccc12)C(=O)NCC(=O)NCC(=O)N[C@@H](C)C(=O)N[C@@H](CC(=O)O)C(=O)N[C@H](C(=O)N(C)[C@@H](CC(=O)O)C(N)=O)[C@@H](C)O)C(C)C (Ac-EDDSDVWWGGADT[NMeD]-NH2)
Table 7, Ala-, D-amino acids and N-methylation scans of APPWT, read-out: Ki (nM) mean ± SEM
  Ki: 565 ± 23 nM

## CC[C@H](C)[C@H](NC(=O)[C@H](Cc1ccccc1)NC(=O)[C@H](CCC(=O)O)NC(=O)[C@@H](NC(=O)[C@H](CCC(=O)O)NC(C)=O)[C@@H](C)O)C(=O)N[C@@H](C)C(=O)N[C@@H](Cc1c[nH]c2ccccc12)C(=O)N[C@@H](Cc1ccc(O)cc1)C(=O)N1CCC[C@H]1C(=O)N[C@@H](C)C(=O)N[C@@H](CC(=O)O)C(=O)N[C@H](C(=O)N[C@@H](CC(=O)O)C(N)=O)[C@@H](C)O (Ac-ETEFIAWYPADTD-NH2)
[3]
  Ki: 190 ± 3 nM

## CC[C@H](C)[C@H](NC(=O)[C@H](Cc1c[nH]c2ccccc12)NC(=O)[C@@H]1CCCN1C(C)=O)C(=O)N[C@H](C(=O)N[C@H](C(=O)N[C@@H](Cc1c[nH]c2ccccc12)C(=O)NCC(=O)N1CCC[C@H]1C(=O)N[C@H](C(=O)N[C@H](C(=O)N[C@@H](CO)C(=O)N[C@@H](CCCNC(=N)N)C(=O)N[C@@H](CCC(=O)O)C(=O)N[C@@H](CC(=O)O)C(N)=O)C(C)C)[C@@H](C)O)C(C)C)[C@@H](C)CC [PWIIVWGPTVSRED]
[2]
  Ki: 339 ± 8 nM

## CC[C@H](C)[C@H](NC(=O)[C@@H](NC(=O)[C@H](CC(=O)O)NC(=O)[C@H](CO)NC(=O)[C@H](CC(=O)O)NC(=O)[C@H](CC(=O)O)NC(=O)[C@H](CCC(=O)O)NC(C)=O)C(C)C)C(=O)N[C@@H](Cc1c[nH]c2ccccc12)C(=O)NCC(=O)NCC(=O)N[C@@H](C)C(=O)N[C@@H](CC(=O)O)C(=O)N[C@H](C(=O)N[C@@H](CC(=O)O)C(N)=O)[C@@H](C)O (Ac-EDDSDVIWGGADTD-NH2)
[4]
  Ki: 951 ± 20 nM

## CC[C@H](C)[C@H](NC(=O)[C@H](Cc1ccccc1)NC(=O)[C@H](CCC(=O)O)NC(=O)[C@@H](NC(=O)[C@H](CCC(=O)O)NC(C)=O)[C@@H](C)O)C(=O)N[C@@H](CC(=O)O)C(=O)N[C@@H](Cc1c[nH]c2ccccc12)C(=O)NCC(=O)N1CCC[C@H]1C(=O)N[C@H](C(=O)NCC(=O)N[C@@H](CC(=O)O)C(=O)N[C@@H](CCC(=O)O)C(=O)N[C@@H](CC(=O)O)C(N)=O)[C@@H](C)O [Peptide 26, Ac-ETEFIDWGPTGDED-NH2] (Ac-ETEFIDWGPTGDED-NH2)
Table 11, deep mutational scanning validation variants of AJAP-1WT, read-out: Ki (nM) mean ± SEM
  Ki: 9 ± 1 nM
Purified peptides, read-out: Ki
  Ki: 9 nM
Relative to AJAP-1WT
  fold improved affinity relative to the wild type: 3 fold
Unit inferred, read-out: Ki
  Ki: 9 nM

## CC[C@H](C)[C@H](NC(=O)[C@H](C)NC(=O)[C@H](Cc1c[nH]c2ccccc12)NC(=O)[C@H](CC(=O)O)NC(C)=O)C(=O)N[C@H](C(=O)N[C@@H](Cc1c[nH]c2ccccc12)C(=O)NCC(=O)N1CCC[C@H]1C(=O)N[C@H](C(=O)N[C@H](C(=O)N[C@@H](CO)C(=O)N[C@@H](CCCNC(=N)N)C(=O)N[C@@H](CCC(=O)O)C(=O)N[C@@H](CC(=O)O)C(N)=O)C(C)C)[C@@H](C)O)C(C)C [DWAIVWGPTVSRED] (Ac-DWAIVWGPTVSRED-NH2)
[2]
  Ki: 338 ± 1 nM

## CC[C@H](C)[C@H](NC(=O)[C@H](Cc1c[nH]c2ccccc12)NC(=O)[C@H](CC(=O)O)NC(=O)[C@H](CC(=O)O)NC(=O)[C@H](CC(=O)O)NC(=O)[C@H](CCC(=O)O)NC(=O)[C@H](CCCCN)NC(=O)[C@H](C)NC(=O)[C@H](C)NC(=O)[C@H](C)NC(=O)[C@H](CCC(=O)O)NC(=O)[C@H](CCCNC(=N)N)NC(=O)[C@H](CCCNC(=N)N)NC(=O)[C@H](CCCNC(=N)N)NC(=O)[C@H](CCCNC(=N)N)NC(=O)[C@H](CCCNC(=N)N)NC(=O)[C@H](CCCNC(=N)N)NC(=O)[C@H](CCCNC(=N)N)NC(=O)[C@H](CCCNC(=N)N)NC(C)=O)C(=O)N[C@@H](CC(=O)O)C(=O)N[C@@H](Cc1c[nH]c2ccccc12)C(=O)NCC(=O)N1CCC[C@H]1C(=O)N[C@H](C(=O)N[C@@H](CO)C(=O)N[C@@H](CC(=O)O)C(=O)N[C@@H](CC(=O)O)C(=O)N[C@@H](CC(=O)O)C(N)=O)[C@@H](C)O [Peptide R8-RL-17] (Ac-RRRRRRRREAAAKEDDDWIDWGPTSDDD-NH2)
CPP tagged peptides overview, SD1/2 binding affinity, mean ± SEM, n ≥ 3, read-out: Ki
  Ki: 105 ± 2 nM
Table 14, CPPs tagged peptides, read-out: Ki (nM) mean ± SEM
  Ki: 105 ± 2 nM

## CC(=O)N[C@@H](CCC(=O)O)C(=O)N[C@@H](CC(=O)O)C(=O)N[C@@H](CC(=O)O)C(=O)N[C@@H](CO)C(=O)N[C@@H](CC(=O)O)C(=O)N[C@H](C(=O)N[C@@H](Cc1c[nH]c2ccccc12)C(=O)N[C@@H](Cc1c[nH]c2ccccc12)C(=O)NCC(=O)NCC(=O)N[C@@H](Cc1c[nH]cn1)C(=O)N[C@@H](CC(=O)O)C(=O)N[C@H](C(=O)N[C@@H](CC(=O)O)C(N)=O)[C@@H](C)O)C(C)C (Ac-EDDSDVWWGGHDTD-NH2)
[4]
  Ki: 346 ± 6 nM

## CC(=O)N[C@@H](CCC(=O)O)C(=O)N[C@@H](CCC(=O)O)C(=O)N[C@@H](CC(=O)O)C(=O)N[C@@H](CC(=O)O)C(=O)N[C@@H](CO)C(=O)N[C@@H](CC(=O)O)C(=O)N[C@H](C(=O)N[C@@H](Cc1c[nH]c2ccccc12)C(=O)N[C@@H](Cc1c[nH]c2ccccc12)C(=O)NCC(=O)NCC(=O)N[C@@H](C)C(=O)N[C@@H](CC(=O)O)C(=O)N[C@H](C(=O)N[C@@H](CC(=O)O)C(=O)N[C@@H](Cc1ccc(O)cc1)C(=O)N[C@@H](C)C(=O)N[C@@H](CC(=O)O)C(=O)NCC(=O)NCC(=O)N[C@@H](CCC(=O)O)C(N)=O)[C@@H](C)O)C(C)C (Ac-EEDDSDVWWGGADTDYADGGE-NH2)
[1]
  Ki: 351 ± 26 nM

## CC[C@H](C)[C@H](NC(=O)[C@H](C)NC(=O)[C@H](Cc1c[nH]c2ccccc12)NC(=O)[C@@H]1CCCN1C(C)=O)C(=O)N[C@H](C(=O)N[C@@H](Cc1c[nH]c2ccccc12)C(=O)NCC(=O)N1CCC[C@H]1C(=O)N[C@H](C(=O)N[C@@H](CO)C(=O)N[C@@H](CO)C(=O)N[C@@H](CCCNC(=N)N)C(=O)N[C@@H](CCC(=O)O)C(=O)N[C@@H](CC(=O)O)C(N)=O)[C@@H](C)O)C(C)C [PWAIVWGPTSSRED] (Ac-PWAIVWGPTSSRED-NH2)
[2]
  Ki: 383 ± 3 nM

## CC(=O)N[C@@H](CCC(=O)O)C(=O)N[C@@H](CC(=O)O)C(=O)N[C@@H](CC(=O)O)C(=O)N[C@@H](CO)C(=O)N[C@@H](Cc1c[nH]c2ccccc12)C(=O)N[C@H](C(=O)N[C@@H](Cc1c[nH]c2ccccc12)C(=O)N[C@@H](Cc1c[nH]c2ccccc12)C(=O)NCC(=O)N(C)CC(=O)N[C@@H](C)C(=O)N[C@@H](CC(=O)O)C(=O)N[C@H](C(=O)N[C@@H](CC(=O)O)C(N)=O)[C@@H](C)O)C(C)C (Ac-EDDSWVWWG[Sar]ADTD-NH2)
[3]
  Ki: 36 ± 1 nM
